# In ChEMBL document CHEMBL1131898, “4-Pyridin-5-yl-2-(3,4,5-trimethoxyphenylamino)pyrimidines: potent and selective inhibitors of ZAP 70” (Bioorg Med Chem Lett, 1999):
# Assays:
# [1] = target: Tyrosine-protein kinase Lck (Homo sapiens, UniProt P06239); assay: Inhibition of p56 lck tyrosine kinase
# [2] = target: T1, Tyrosine-protein kinase ZAP-70 (Homo sapiens, UniProt P43403); assay: Inhibition of Zeta-chain (TCR) associated protein kinase 70 kDa phosphorylation of polyGly-Tyr.
# T1 sequence (P43403 whole entry): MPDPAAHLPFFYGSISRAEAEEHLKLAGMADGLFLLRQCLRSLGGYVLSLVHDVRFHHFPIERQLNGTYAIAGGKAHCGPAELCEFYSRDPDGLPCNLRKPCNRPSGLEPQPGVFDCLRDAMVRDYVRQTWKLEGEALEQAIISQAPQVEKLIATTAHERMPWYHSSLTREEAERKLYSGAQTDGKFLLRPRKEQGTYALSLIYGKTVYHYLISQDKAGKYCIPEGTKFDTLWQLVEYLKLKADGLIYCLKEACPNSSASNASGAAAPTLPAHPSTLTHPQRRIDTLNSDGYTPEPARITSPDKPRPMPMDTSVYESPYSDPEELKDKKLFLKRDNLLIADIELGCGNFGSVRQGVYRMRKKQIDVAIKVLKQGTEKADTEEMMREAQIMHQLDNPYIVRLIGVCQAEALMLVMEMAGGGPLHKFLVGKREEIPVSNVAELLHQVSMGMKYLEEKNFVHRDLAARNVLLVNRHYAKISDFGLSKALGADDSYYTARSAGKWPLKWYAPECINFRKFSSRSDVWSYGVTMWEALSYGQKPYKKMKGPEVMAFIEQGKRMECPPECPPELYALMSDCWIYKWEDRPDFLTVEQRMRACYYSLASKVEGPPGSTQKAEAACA
# [3] = target: Protein kinase C (PKC); assay: Inhibition of protein kinase C (PKC); assay type: protein assay
# [4] = target: Tyrosine-protein kinase CSK (Homo sapiens, UniProt P41240); assay: Inhibition of csk tyrosine kinase
# [5] = target: Epidermal growth factor receptor (Homo sapiens, UniProt P00533); assay: Inhibition of Epidermal growth factor receptor (EGFr)
# Sequence of Epidermal growth factor receptor (P00533 whole entry): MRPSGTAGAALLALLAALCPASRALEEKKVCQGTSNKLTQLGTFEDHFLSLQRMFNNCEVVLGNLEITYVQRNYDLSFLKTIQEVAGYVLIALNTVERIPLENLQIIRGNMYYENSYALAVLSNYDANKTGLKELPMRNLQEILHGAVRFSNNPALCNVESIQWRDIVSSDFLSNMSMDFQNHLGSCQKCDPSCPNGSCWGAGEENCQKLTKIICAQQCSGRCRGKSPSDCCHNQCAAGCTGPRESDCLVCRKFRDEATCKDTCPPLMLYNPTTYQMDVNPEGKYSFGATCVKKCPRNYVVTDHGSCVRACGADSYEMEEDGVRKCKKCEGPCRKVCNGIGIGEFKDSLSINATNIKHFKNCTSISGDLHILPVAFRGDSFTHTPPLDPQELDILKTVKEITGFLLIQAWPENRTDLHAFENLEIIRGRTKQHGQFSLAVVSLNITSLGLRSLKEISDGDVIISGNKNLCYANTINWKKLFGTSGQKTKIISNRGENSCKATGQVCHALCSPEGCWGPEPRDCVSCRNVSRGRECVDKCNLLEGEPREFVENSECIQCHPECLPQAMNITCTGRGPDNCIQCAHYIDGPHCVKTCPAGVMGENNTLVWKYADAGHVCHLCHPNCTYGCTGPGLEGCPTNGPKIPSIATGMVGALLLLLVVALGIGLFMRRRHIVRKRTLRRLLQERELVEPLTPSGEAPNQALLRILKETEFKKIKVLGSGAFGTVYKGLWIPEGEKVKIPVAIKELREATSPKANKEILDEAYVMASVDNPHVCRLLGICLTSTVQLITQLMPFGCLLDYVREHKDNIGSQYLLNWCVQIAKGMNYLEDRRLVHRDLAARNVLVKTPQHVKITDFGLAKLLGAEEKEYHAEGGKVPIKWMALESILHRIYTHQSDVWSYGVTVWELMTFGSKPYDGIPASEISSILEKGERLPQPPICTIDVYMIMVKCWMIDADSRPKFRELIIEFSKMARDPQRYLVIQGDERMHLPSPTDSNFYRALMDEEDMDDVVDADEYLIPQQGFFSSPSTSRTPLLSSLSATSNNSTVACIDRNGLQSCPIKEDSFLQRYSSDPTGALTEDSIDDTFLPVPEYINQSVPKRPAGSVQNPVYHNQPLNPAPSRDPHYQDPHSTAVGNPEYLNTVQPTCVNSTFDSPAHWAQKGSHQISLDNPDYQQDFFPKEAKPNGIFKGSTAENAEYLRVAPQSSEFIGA
# Sequence of Tyrosine-protein kinase Lck (P06239 whole entry): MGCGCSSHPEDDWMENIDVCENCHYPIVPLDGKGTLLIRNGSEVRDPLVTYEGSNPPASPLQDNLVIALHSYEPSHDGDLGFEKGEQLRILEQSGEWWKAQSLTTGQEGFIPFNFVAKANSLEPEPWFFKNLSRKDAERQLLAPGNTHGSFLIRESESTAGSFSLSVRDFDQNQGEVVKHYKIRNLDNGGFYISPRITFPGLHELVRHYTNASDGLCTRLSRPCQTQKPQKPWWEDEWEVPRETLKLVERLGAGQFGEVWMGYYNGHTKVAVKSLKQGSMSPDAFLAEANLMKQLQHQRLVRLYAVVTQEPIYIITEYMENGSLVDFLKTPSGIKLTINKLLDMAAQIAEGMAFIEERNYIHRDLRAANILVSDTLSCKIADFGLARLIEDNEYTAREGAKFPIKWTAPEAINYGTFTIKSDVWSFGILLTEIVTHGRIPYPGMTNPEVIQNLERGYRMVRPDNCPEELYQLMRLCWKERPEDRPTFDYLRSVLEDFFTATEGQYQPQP
IC50 [1] [nM],IC50 [2] [nM],IC50 [3] [nM],IC50 [4] [nM],IC50 [5] [nM],SMILES
1100,1900,1400,–,–,COc1cc(Nc2nccc(-c3cccnc3)n2)cc(OC)c1OC
1200,–,150,> 10000,5100,COc1cc(Nc2nccc(-c3ccc(NCCN)nc3)n2)cc(OC)c1OC
3300,54,1300,> 10000,–,COc1cc(Nc2nccc(-c3ccc(N4CCNCC4)nc3)n2)cc(OC)c1OC
2200,8,2874,–,–,CC[C@H]1CN(c2ccc(-c3ccnc(Nc4cc(OC)c(OC)c(OC)c4)n3)cn2)CCN1
